As usually defined, the Ki is a dissociation constant, usually derived from enzyme kinetics or from competition with a known ligand. High values mean a looser hold on the target, low ones a stronger hold on the target. Usually LD50 stands for the dose expected to kill half of the subjects tested.

Values after ≈ are worked out from the molar mass of the structure shown.

The source of these data is patent US9060985B2, “Use of rosmarinic acid and the derivatives thereof to treat ciguatera” (priority 2009, dated 2015).

The test system of one data set is ciguatoxins. The settings on record: cited from earlier work.
The test system of a further data set is symptoms of ciguatera. The settings on record: cited from earlier work.
In data set [1] the test system is neuroblastoma cell cultures. Put plainly: Inhibition of the cytotoxicity caused by extracts of toxic loach or toxic giant clams on neuroblastoma cell cultures (MTT, with ouabain/veratridine). The format is cell-based. The method, then: The sample of salmon-pink loach (Ref15), supplied by the Louis Malardé Institute, was collected at Mururoa (Tuamotu Archipelago, French Polynesia). The sample of giant clam (GPS59) was collected at Raivavae (Austral Islands, French Polynesia). The toxicity of these two samples was confirmed beforehand on mice, by a cytotoxicity assay on neuroblastomas and radioligand assays with P-CTX-3.
The samples are stored at 4° C. The rosmarinic acid was obtained from Sigma.
96-well plates are prepared with 50 000 cells in 100 μL of medium per well. The outer wells are not used, to avoid variations of response due to edge effects. The cells are incubated for 24 h at 37° C. with 5% CO2 to give them time to adhere.
A mixture of ouabain (cardiac glycoside involved in cellular permeability, inhibiting the Na/K pump) and veratridine (polycyclic alkaloid which leads to persistent activation of the sodium channels), designated O/V hereinafter, in which the two active substances are present respectively at a final concentration of 0.33 and 0.033 mM in 20 μl, is added to the wells.
Ouabain is an inhibitor of ATPase Na^+/K^+, and veratridine is an activator of the sodium channels. The combined action of these two products induces a raised intracellular level of sodium and causes a change in the morphology of the cells, which greatly reduces their viability. […]
All the plates have a standard control of culture medium (cells only) and a control with cells in the presence of the O/V mixture. Rosmarinic acid is tested alone with the O/V mixture to record effects of cytotoxicity or of cellular proliferation as well as any interferences of coloration due to strong concentrations of products, which can lead to false positives in spectrophotometer readings. […]
After incubation for 1.5 h, the formazan crystals that formed are dissolved with 150 μL of DMSO (dimethylsulfoxide) for each well. After homogenization, the plates are read with a UV plate reader at 490 nm. Then the data are transferred and processed using Excel® and analyzed with the GraphPad Prism® software (version 4).

Data set [2] concerns voltage-dependent sodium channels. The format is binding, rat.
The test system of a further data set is mouse. The settings on record: cited from earlier work.

In the case of `C=C/C=C\CC[C@H]1O[C@H]2CC[C@@]3(C)O[C@H]4[C@@H](O)C[C@@]5(C)O[C@@H](CC/C=C(C)/C(C)=C/C=O)[C@@H](C)C[C@@H]5O[C@@H]4C[C@@H]3O[C@@H]2CC[C@@]1(C)O` [brevenal], the “inhibition of neurotoxic effects induced by the ciguatoxins” value in the data set on ciguatoxins is listed as “powerful inhibitor”.
`OC[C@@H](O)[C@@H](O)[C@H](O)[C@H](O)CO` [mannitol, Mannitol]: in the data set on symptoms of ciguatera (administered 48 to 72 hours after intoxication), the “effect on neurological and muscular disorders” value was “capable of alleviating neurological and muscular disorders”. Further, in the data set on symptoms of ciguatera (blind clinical trials, mannitol and a saline solution, after 24 hours), the “effect on the symptoms of ciguatera” value is on record as “did not, however, show a beneficial effect”.
With `O=C(/C=C/c1ccc(O)c(O)c1)O[C@H](Cc1ccc(O)c(O)c1)C(=O)O` [rosmarinic acid, (R)-a-[[3-(3,4-dihydroxyphenyl)-1-oxo-2E-propenyl]oxy]-3,4-dihydroxybenzenepropanoic acid], in data set [1] (Neuroblastoma cell, neuroblastomas, toxic extracts, estimated, read-out: IC50 (concentration for 50% decrease in cellular mortality caused by ciguatoxins and associated toxins)), the IC50 is 500 to 1000 µg/mL (≈ 1390 to 2780 µM). In addition, the “concentration from which cellular viability is significantly increased” value in data set [1] (toxic giant clam extract GPS59 at 100 μg/ml, O/V mixture) is at least 50 µg/mL. Further, the “effect on cellular viability of neuroblastomas (cytotoxicity of toxic giant clam extract)” value in data set [1] (toxic giant clam extract GPS59 at 100 μg/ml, O/V mixture, rosmarinic acid 10 to 1000 μg/ml, 18 h, MTT) is recorded as “protective effect”. Further, in data set [2], the “IC50 (50% inhibition of interaction with [^3H]PbTx-3)” value was determined as 880 µg/mL; the affinity, expressed as Ki, was 1430 µM; the “measured radioactivity (replacement of tritiated brevetoxin on the sodium channels)” value is given as “decrease in the measured radioactivity”. For the same molecule, the toxicity entry in the data set with mouse (at 531 mg/kg i.v. in the mouse) is “does not display toxicity”. Besides, in the data set on mouse (intravenously (i.v.) in the mouse), the LD50 was 531 mg/kg.
